How the values were obtained:
[1] = target: Tyrosine-protein phosphatase non-receptor type 13 (Homo sapiens, UniProt Q12923); experiment: Inhibition of FAP-1(unknown origin)
[2] = target: Tyrosine-protein phosphatase non-receptor type 2 (Homo sapiens, UniProt P17706); experiment: Inhibition of TC-PTP (unknown origin)
[3] = target: Tyrosine-protein phosphatase non-receptor type 11 (Homo sapiens, UniProt Q06124); experiment: Inhibition of SHP2 (unknown origin)
[4] = target: Receptor-type tyrosine-protein phosphatase beta (Homo sapiens, UniProt P23467); experiment: Inhibition of PTPbeta (unknown origin)
[5] = target: Receptor-type tyrosine-protein phosphatase epsilon (Homo sapiens, UniProt P23469); experiment: Inhibition of PTPepsilon (unknown origin)
[6] = target: Receptor-type tyrosine-protein phosphatase S (Homo sapiens, UniProt Q13332); experiment: Inhibition of PTPsigma (unknown origin)
[7] = target: Dual specificity protein phosphatase 6 (Homo sapiens, UniProt Q16828); experiment: Inhibition of MKP3 (unknown origin)
[8] = target: RNA polymerase II subunit A C-terminal domain phosphatase SSU72 (Homo sapiens, UniProt Q9NP77); experiment: Inhibition of SSU72 (unknown origin)
[9] = Metabolic stability in mouse hepatic microsome at 4 uM measured after 30 mins by LC-MS analysis; format: ADME; conditions: liver microsomes, read-out: Stability
[10] = Plasma protein binding in mouse assessed as unbound fraction measured after 4.5 hrs by LC-MS/MS analysis; format: ADME, cell-free
[11] = AUC(0 to 8 hrs) in CD-1 mouse plasma at 10 mg/kg, po measured after 8 hrs by LC-MS/MS analysis; format: ADME, organism-based; parameters: dose 10 mg/kg, time 8 hrs, route po; conditions: in vivo
[12] = AUC(0 to 8 hrs) in CD-1 mouse plasma at 2 mg/kg, iv measured after 8 hrs by LC-MS/MS analysis; format: ADME, organism-based; parameters: dose 2 mg/kg, time 8 hrs, route iv; conditions: in vivo
[13] = Cmax in CD-1 mouse plasma at 10 mg/kg, po measured after 8 hrs by LC-MS/MS analysis; format: ADME, organism-based; parameters: dose 10 mg/kg, time 8 hrs, route po; conditions: mouse, in vivo, 8 h
[14] = Unbound Cmax in plasma of CD-1 mouse at 2 mg/kg, iv measured after 8 hrs by LC-MS/MS analysis; format: ADME, organism-based; conditions: in vivo
[15] = Half life in CD-1 mouse plasma at 10 mg/kg, po measured after 8 hrs by LC-MS/MS analysis; format: ADME, organism-based; conditions: in vivo
[16] = Cmax in Sprague-Dawley rat plasma at 30 mg/kg, po measured after 24 hrs by LC-MS/MS analysis; format: ADME, organism-based; parameters: time 24 hrs, dose 30 mg/kg, route po; conditions: in vivo
[17] = Tmax in Sprague-Dawley rat plasma at 30 mg/kg, po measured after 24 hrs by LC-MS/MS analysis; format: ADME, organism-based; conditions: in vivo

Chain of Receptor-type tyrosine-protein phosphatase epsilon (P23469 whole entry): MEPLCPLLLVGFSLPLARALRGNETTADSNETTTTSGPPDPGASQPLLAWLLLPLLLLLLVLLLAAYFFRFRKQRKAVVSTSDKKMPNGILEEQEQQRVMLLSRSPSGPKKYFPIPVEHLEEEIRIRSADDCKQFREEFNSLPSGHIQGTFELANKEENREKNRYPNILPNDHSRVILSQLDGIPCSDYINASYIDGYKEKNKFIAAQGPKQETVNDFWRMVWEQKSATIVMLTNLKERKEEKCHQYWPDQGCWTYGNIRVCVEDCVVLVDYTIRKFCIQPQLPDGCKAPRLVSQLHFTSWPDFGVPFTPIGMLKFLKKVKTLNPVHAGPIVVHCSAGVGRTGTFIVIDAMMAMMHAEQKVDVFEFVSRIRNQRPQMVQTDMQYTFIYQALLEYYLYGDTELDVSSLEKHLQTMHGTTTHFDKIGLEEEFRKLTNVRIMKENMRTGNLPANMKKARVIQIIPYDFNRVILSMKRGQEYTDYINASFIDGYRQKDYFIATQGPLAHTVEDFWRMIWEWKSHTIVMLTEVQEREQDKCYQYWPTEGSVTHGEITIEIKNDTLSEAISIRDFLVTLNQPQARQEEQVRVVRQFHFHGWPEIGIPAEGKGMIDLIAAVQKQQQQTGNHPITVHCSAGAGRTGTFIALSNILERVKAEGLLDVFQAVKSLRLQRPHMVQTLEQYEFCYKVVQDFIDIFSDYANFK
Chain of Receptor-type tyrosine-protein phosphatase beta (P23467 whole entry): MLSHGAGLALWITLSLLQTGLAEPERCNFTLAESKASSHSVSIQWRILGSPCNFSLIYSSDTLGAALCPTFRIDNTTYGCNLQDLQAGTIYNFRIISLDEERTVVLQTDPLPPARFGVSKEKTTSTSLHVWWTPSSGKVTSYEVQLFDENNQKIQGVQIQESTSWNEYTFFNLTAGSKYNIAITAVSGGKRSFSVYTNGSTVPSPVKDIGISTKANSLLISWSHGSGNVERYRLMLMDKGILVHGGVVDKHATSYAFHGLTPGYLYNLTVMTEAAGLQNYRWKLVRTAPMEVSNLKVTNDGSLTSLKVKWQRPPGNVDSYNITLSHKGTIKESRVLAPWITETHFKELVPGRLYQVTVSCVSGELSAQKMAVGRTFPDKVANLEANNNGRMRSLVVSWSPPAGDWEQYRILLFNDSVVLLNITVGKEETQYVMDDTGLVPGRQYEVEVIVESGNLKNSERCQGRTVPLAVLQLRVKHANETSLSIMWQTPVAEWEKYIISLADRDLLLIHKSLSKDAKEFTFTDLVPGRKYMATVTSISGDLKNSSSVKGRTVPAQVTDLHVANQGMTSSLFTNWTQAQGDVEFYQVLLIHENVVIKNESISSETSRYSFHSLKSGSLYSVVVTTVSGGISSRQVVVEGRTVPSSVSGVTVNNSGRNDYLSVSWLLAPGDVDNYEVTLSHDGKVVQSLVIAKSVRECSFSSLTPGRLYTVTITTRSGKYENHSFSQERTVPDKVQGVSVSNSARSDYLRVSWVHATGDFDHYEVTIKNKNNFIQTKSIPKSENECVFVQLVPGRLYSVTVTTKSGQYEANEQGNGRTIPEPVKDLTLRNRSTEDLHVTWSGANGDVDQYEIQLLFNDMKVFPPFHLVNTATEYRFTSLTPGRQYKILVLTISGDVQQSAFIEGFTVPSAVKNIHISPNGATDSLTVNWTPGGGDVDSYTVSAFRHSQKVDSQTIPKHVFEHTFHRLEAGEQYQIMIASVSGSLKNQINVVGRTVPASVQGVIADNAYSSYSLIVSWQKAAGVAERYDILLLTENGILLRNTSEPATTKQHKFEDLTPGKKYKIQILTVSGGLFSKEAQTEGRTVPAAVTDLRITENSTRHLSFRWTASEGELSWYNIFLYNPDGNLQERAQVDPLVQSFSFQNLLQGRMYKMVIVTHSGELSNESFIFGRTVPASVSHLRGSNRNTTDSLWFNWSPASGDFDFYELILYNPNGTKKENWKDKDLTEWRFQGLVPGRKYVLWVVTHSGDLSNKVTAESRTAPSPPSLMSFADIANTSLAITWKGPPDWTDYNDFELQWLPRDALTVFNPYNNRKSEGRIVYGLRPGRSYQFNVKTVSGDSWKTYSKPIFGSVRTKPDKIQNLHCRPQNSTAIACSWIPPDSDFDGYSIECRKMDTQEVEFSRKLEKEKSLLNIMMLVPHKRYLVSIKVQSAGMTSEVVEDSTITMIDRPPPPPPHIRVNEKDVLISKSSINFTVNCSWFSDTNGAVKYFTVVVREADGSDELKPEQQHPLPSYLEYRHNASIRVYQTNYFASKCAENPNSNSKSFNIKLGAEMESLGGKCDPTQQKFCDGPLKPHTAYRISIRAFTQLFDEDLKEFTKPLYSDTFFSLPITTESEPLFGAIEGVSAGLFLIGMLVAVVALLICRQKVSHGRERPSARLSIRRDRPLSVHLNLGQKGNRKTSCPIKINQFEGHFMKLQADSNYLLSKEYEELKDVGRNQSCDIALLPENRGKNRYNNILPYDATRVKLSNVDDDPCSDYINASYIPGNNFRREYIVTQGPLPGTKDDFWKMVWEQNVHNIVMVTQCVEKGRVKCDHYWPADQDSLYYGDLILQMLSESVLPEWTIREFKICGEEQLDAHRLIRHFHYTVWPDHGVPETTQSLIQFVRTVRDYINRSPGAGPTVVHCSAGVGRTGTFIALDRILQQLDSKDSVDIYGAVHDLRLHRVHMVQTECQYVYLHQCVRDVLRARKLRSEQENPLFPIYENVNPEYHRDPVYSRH
Chain of Tyrosine-protein phosphatase non-receptor type 13 (Q12923 whole entry): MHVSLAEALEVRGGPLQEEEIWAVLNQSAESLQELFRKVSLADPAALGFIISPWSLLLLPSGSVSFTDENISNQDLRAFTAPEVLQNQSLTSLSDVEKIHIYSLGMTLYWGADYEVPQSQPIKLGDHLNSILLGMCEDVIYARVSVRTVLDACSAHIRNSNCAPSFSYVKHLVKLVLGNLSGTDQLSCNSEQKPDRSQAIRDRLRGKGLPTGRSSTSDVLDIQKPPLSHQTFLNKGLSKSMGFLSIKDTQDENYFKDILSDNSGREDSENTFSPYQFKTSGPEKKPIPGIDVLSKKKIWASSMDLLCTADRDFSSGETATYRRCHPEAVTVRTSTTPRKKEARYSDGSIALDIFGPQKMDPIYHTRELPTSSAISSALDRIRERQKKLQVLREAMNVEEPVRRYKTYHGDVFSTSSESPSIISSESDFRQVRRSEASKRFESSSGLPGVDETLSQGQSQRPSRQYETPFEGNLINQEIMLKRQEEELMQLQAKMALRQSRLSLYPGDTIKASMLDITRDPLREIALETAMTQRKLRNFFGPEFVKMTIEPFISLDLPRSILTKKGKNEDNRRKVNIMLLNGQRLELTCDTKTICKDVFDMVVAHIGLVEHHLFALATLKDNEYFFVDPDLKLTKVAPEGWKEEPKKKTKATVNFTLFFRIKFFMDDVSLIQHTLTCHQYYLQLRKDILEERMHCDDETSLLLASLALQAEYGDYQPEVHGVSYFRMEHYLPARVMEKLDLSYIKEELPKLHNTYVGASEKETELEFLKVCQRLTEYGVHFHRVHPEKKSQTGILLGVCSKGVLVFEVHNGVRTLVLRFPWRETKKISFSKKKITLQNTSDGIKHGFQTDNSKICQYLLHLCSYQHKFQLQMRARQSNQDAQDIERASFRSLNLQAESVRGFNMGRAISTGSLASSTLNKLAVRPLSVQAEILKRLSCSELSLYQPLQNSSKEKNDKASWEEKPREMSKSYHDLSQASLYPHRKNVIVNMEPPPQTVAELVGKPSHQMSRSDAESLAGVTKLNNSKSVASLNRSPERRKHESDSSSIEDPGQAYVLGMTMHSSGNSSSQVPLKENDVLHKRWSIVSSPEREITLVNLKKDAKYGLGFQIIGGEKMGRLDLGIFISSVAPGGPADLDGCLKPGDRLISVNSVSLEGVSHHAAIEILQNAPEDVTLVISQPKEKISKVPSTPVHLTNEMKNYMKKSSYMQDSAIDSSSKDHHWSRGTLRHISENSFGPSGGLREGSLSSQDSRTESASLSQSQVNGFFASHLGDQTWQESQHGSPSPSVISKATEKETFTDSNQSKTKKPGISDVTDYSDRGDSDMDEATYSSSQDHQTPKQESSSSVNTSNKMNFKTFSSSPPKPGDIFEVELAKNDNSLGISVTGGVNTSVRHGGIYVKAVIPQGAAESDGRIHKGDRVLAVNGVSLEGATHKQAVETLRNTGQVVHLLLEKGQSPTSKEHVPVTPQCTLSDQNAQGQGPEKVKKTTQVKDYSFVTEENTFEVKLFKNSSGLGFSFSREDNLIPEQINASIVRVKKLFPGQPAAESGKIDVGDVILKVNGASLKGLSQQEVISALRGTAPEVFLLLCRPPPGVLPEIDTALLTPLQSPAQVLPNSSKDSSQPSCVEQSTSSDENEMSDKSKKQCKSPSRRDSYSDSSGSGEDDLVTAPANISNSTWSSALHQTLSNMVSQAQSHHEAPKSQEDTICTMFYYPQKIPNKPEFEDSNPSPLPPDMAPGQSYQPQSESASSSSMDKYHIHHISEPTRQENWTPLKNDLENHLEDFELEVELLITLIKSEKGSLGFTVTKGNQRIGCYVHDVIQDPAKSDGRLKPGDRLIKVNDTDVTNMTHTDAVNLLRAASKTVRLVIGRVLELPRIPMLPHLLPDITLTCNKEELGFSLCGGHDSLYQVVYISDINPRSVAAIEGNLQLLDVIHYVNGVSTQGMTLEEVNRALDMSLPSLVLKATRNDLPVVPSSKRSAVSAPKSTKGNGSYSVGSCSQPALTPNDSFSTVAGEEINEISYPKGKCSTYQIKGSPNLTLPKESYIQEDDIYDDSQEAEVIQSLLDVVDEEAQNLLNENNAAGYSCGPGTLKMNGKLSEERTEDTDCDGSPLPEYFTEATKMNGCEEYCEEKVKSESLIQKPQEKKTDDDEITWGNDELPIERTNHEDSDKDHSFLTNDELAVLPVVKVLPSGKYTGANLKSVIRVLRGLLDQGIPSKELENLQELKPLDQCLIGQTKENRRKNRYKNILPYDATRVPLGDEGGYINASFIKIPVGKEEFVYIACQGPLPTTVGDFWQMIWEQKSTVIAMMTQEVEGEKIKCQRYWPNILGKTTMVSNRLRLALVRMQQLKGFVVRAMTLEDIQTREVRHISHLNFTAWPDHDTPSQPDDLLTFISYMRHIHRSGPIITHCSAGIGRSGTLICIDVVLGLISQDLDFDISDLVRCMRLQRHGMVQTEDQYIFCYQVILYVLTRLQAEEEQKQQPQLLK

## Cc1c(Br)cc(NC(=O)NS(=O)(=O)O)cc1Br
[1]
  IC50: > 10 µM
[2]
  IC50: > 10 µM
[3]
  IC50: > 10 µM
[4]
  IC50: > 10 µM
[5]
  IC50: > 10 µM
[6]
  IC50: > 10 µM
[7]
  IC50: > 10 µM
[8]
  IC50: > 10 µM
[9]
  remaining at 0.5 h, 4 µM: 30%
[10]
  Fu: 0.024
[11]
  AUC: 37.3 µM·h
[12]
  AUC: 15.1 µM·h
[13]
  Cmax: 9.69 µM
[14]
  fCmax: 322 nM
[15]
  t1/2: 4.2 h
[16]
  Cmax: 6.59 µM
[17]
  Tmax: 2.7 h
